Reference: ChEMBL document CHEMBL4138123, “Design, synthesis and biological evaluation of novel pyrazolochalcones as potential modulators of PI3K/Akt/mTOR pathway and inducers of apoptosis in breast cancer cells” (Eur J Med Chem, 2017)

Tests used:
Format in all cases: functional
[1] = test system: NCI-H522; assay: Cytotoxicity against human NCI-H522 cells assessed as growth inhibition after 48 hrs by sulforhodamine B assay; details: NCI-H522, 48 h
[2] = test system: PC-3; assay: Cytotoxicity against human PC3 cells assessed as growth inhibition after 48 hrs by sulforhodamine B assay; details: PC-3, 48 h
[3] = test system: Hs-578T; assay: Cytotoxicity against human Hs 578T cells assessed as growth inhibition after 48 hrs by sulforhodamine B assay
[4] = test system: UACC-62; assay: Cytotoxicity against human UACC62 cells assessed as cell growth at 0.01 uM after 48 hrs by sulforhodamine B assay relative to control; details: UACC-62, 48 h, read-out: Activity
[5] = test system: HCT-116; assay: Cytotoxicity against human HCT116 cells assessed as cell growth at 0.01 uM after 48 hrs by sulforhodamine B assay relative to control; details: HCT-116, 48 h, read-out: Activity
[6] = test system: HCC 2998; assay: Cytotoxicity against human HCC2998 cells assessed as cell growth at 0.01 uM after 48 hrs by sulforhodamine B assay relative to control; details: HCC 2998, 48 h, read-out: Activity
[7] = test system: BT-549; assay: Cytotoxicity against human BT549 cells assessed as cell growth at 0.01 uM after 48 hrs by sulforhodamine B assay relative to control; details: BT-549, 48 h, read-out: Activity
[8] = test system: NCI-H460; assay: Cytotoxicity against human NCI-H460 cells assessed as cell growth at 0.1 uM after 48 hrs by sulforhodamine B assay relative to control; details: NCI-H460, 48 h, read-out: Activity
[9] = test system: SF-539; assay: Cytotoxicity against human SF539 cells assessed as cell growth at 0.1 uM after 48 hrs by sulforhodamine B assay relative to control; details: SF-539, 48 h, read-out: Activity
[10] = test system: SK-OV-3; assay: Cytotoxicity against human SKOV3 cells assessed as cell growth at 0.1 uM after 48 hrs by sulforhodamine B assay relative to control; details: SK-OV-3, 48 h, read-out: Activity
[11] = test system: SN12C; assay: Cytotoxicity against human SN12C cells assessed as cell growth at 0.1 uM after 48 hrs by sulforhodamine B assay relative to control; details: read-out: Activity
[12] = test system: MDA-MB-468; assay: Cytotoxicity against human MDA-MB-468 cells assessed as cell growth at 0.1 uM after 48 hrs by sulforhodamine B assay relative to control; details: MDA-MB-468, 48 h, read-out: Activity
[13] = test system: CCRF-CEM; assay: Cytotoxicity against human CCRF-CEM cells assessed as cell growth at 1 uM after 48 hrs by sulforhodamine B assay relative to control; details: read-out: Activity
[14] = test system: NCI-H23; assay: Cytotoxicity against human NCI-H23 cells assessed as cell growth at 1 uM after 48 hrs by sulforhodamine B assay relative to control; details: NCI-H23, 48 h, read-out: Activity
[15] = test system: HT-29; assay: Cytotoxicity against human HT-29 cells assessed as cell growth at 1 uM after 48 hrs by sulforhodamine B assay relative to control; details: HT-29, 48 h, read-out: Activity
[16] = test system: Malme-3M; assay: Cytotoxicity against human MALME-3M cells assessed as cell growth at 1 uM after 48 hrs by sulforhodamine B assay relative to control; details: read-out: Activity
[17] = test system: MDA-MB-435; assay: Cytotoxicity against human MDA-MB-435 cells assessed as cell growth at 1 uM after 48 hrs by sulforhodamine B assay relative to control; details: MDA-MB-435, 48 h, read-out: Activity
[18] = test system: SK-MEL-28; assay: Cytotoxicity against human SK-MEL-28 cells assessed as cell growth at 1 uM after 48 hrs by sulforhodamine B assay relative to control; details: SK-MEL-28, 48 h, read-out: Activity
[19] = test system: 786-0; assay: Cytotoxicity against human 786-0 cells assessed as cell growth at 1 uM after 48 hrs by sulforhodamine B assay relative to control; details: 786-0, 48 h, read-out: Activity
[20] = test system: UO-31; assay: Cytotoxicity against human UO31 cells assessed as cell growth at 1 uM after 48 hrs by sulforhodamine B assay relative to control; details: UO-31, 48 h, read-out: Activity
[21] = test system: K562; assay: Cytotoxicity against human K562 cells assessed as cell growth at 10 uM after 48 hrs by sulforhodamine B assay relative to control; details: K562, 48 h, read-out: Activity
[22] = test system: KM12; assay: Cytotoxicity against human KM12 cells assessed as cell growth at 10 uM after 48 hrs by sulforhodamine B assay relative to control; details: KM12, 48 h, read-out: Activity
[23] = test system: SNB-19; assay: Cytotoxicity against human SNB19 cells assessed as cell growth at 10 uM after 48 hrs by sulforhodamine B assay relative to control; details: SNB-19, 48 h, read-out: Activity
[24] = test system: Malme-3M; assay: Cytotoxicity against human MALME-3M cells assessed as cell growth at 10 uM after 48 hrs by sulforhodamine B assay relative to control; details: read-out: Activity
[25] = test system: OVCAR-3; assay: Cytotoxicity against human OVCAR3 cells assessed as cell growth at 10 uM after 48 hrs by sulforhodamine B assay relative to control; details: OVCAR-3, 48 h, read-out: Activity
[26] = test system: OVCAR-8; assay: Cytotoxicity against human OVCAR8 cells assessed as cell growth at 10 uM after 48 hrs by sulforhodamine B assay relative to control; details: OVCAR-8, 48 h, read-out: Activity
[27] = test system: RXF 393; assay: Cytotoxicity against human RXF393 cells assessed as cell growth at 10 uM after 48 hrs by sulforhodamine B assay relative to control; details: RXF 393, 48 h, read-out: Activity
[28] = test system: PC-3; assay: Cytotoxicity against human PC3 cells assessed as cell growth at 10 uM after 48 hrs by sulforhodamine B assay relative to control; details: PC-3, 48 h, read-out: Activity
[29] = test system: K562; assay: Cytotoxicity against human K562 cells assessed as cell growth at 100 uM after 48 hrs by sulforhodamine B assay relative to control; details: K562, 48 h, read-out: Activity
[30] = test system: HCC 2998; assay: Cytotoxicity against human HCC2998 cells assessed as cell growth at 100 uM after 48 hrs by sulforhodamine B assay relative to control; details: HCC 2998, 48 h, read-out: Activity
[31] = test system: HT-29; assay: Cytotoxicity against human HT-29 cells assessed as cell growth at 100 uM after 48 hrs by sulforhodamine B assay relative to control; details: HT-29, 48 h, read-out: Activity
[32] = test system: UACC-62; assay: Cytotoxicity against human UACC62 cells assessed as cell growth at 100 uM after 48 hrs by sulforhodamine B assay relative to control; details: UACC-62, 48 h, read-out: Activity
[33] = test system: OVCAR-8; assay: Cytotoxicity against human OVCAR8 cells assessed as cell growth at 100 uM after 48 hrs by sulforhodamine B assay relative to control; details: OVCAR-8, 48 h, read-out: Activity
[34] = test system: MDA-MB-468; assay: Cytotoxicity against human MDA-MB-468 cells assessed as cell growth at 100 uM after 48 hrs by sulforhodamine B assay relative to control; details: MDA-MB-468, 48 h, read-out: Activity
[35] = test system: NCI/ADR-RES; assay: Cytotoxicity against human NCI/ADR-RES cells assessed as growth inhibition after 48 hrs by sulforhodamine B assay
[36] = test system: MDA-MB-435; assay: Cytotoxicity against human MDA-MB-435 cells assessed as cell growth at 10 uM after 48 hrs by sulforhodamine B assay relative to control; details: MDA-MB-435, 48 h, read-out: Activity

Row | Compound | TGI [1] [µM] | GI50 [2] [µM] | TGI [2] [µM] | GI50 [3] [µM] | TGI [3] [µM] | growth at 0.01 µM [4] [%] | growth at 0.01 µM [5] [%] | growth at 0.01 µM [6] [%] | growth at 0.01 µM [7] [%] | growth at 0.1 µM [8] [%] | growth at 0.1 µM [9] [%] | growth at 0.1 µM [10] [%] | growth at 0.1 µM [11] [%] | growth at 0.1 µM [12] [%] | growth at 1 µM [13] [%] | growth at 1 µM [14] [%] | growth at 1 µM [15] [%] | growth at 1 µM [16] [%] | growth at 1 µM [17] [%] | growth at 1 µM [18] [%] | further results
1 | COc1ccc(C(=O)/C=C/c2cc(-c3ccc4c(c3)OCO4)n[nH]2)cc1OC | 4.44 | 2.58 | 18.2 | 2.69 | 8.21 | 98 | 105 | 98 | 102 | 102 | 95 | 99 | 95 | 90 | 85 | 85 | 93 | 106 | 96 | 96 | LC50 [1]: 12.7 µM; LC50 [2]: > 100 µM; LC50 [3]: > 100 µM; growth at 1 µM [19]: 94%; growth at 1 µM [20]: 79%; growth at 10 µM [21]: 4%; growth at 10 µM [22]: -2%; growth at 10 µM [23]: 21%; growth at 10 µM [24]: 41%; growth at 10 µM [25]: -47%; growth at 10 µM [26]: -27%; growth at 10 µM [27]: -39%; growth at 10 µM [28]: 16%; growth at 100 µM [29]: -12%; growth at 100 µM [30]: -86%; growth at 100 µM [31]: -44%; growth at 100 µM [32]: -94%; growth at 100 µM [33]: -65%; growth at 100 µM [34]: -85%
2 | COc1ccc(-c2cc(/C=C/C(=O)c3ccc4c(c3)OCO4)[nH]n2)cc1OC | – | 1.98 | – | 3.76 | – | – | – | – | – | – | – | – | – | – | – | – | – | – | – | – | GI50 [1]: 1.69 µM; GI50 [35]: 3.43 µM
3 | COc1ccc(C(=O)/C=C/c2cc(-c3ccc(OC)c(OC)c3)n[nH]2)cc1OC | 3.9 | 1.98 | 35.7 | 3.76 | > 100 | 95 | 94 | 107 | 84 | 99 | 89 | 97 | 98 | 80 | 15 | 94 | 63 | 104 | 87 | 81 | GI50 [1]: 1.69 µM; GI50 [35]: 3.43 µM; TGI [35]: 33.1 µM; growth at 1 µM [19]: 78%; growth at 1 µM [20]: 72%; growth at 10 µM [21]: 3%; growth at 10 µM [22]: -80%; growth at 10 µM [23]: -48%; growth at 10 µM [24]: -27%; growth at 10 µM [36]: -69%; growth at 10 µM [25]: -43%; growth at 10 µM [26]: 8%; growth at 10 µM [27]: -84%; growth at 10 µM [28]: 5%; growth at 100 µM [30]: -91%; growth at 100 µM [31]: -39%; growth at 100 µM [32]: -49%; growth at 100 µM [33]: -15%; growth at 100 µM [34]: -64%
